In patent publication US5462933A, “Modified bile acid conjugates, and their use as pharmaceuticals” (Hoechst Aktiengesellschaft, priority 1989, dated 1995):

Test: In vivo perfused liver: absorption from portal vein blood and excretion into the bile
Design: species or system rat
Conditions: after W-X-G (Example 67)
Protocol: In order to investigate a selective absorption of bile acid derivatives into the liver and their hepatotropic action, the appropriate derivatives were injected as a bolus into a mesenteric vein of anesthetized rats and the excretion of these derivatives and the corresponding active compounds or active compound metabolites into the bile was analysed.
Male Sprague-Dawley rats (300-500 g bodyweight) had their food withdrawn and received water ad libitum. After tracheotomy, the abdomen was opened by median section under urethane anesthesia ([…] i.m. urethane 30%). The pylorus was ligated and the bile duct was cannulated by advancing a polyethylene tube (d=0.05 mm) up to the liver and the bile was drained. The volume of secretion was measured at 15 minute intervals. After a preliminary period of 60 minutes, the substances (0.5 ml of a 1 mM solution in 0.9% NaCl solution) were administered into a mesenteric vein in the course of 30 sec and the bile was collected at prestated time intervals (2, 4, 6, 8, 10, 15, 20, 30, 40, 50, 60, 70, 80, 90, 100, 110 and 120 min). The bile acid derivative was administered first, and the appropriate active compound was administered after a collection period of 2 hours. 120 min after administration of test substance, the bladder volume was measured and the urine was also collected. The bile and urine samples were stored on ice during the experiment and then deep-frozen.
Each 10 μl bile sample was applied to TLC plates (10×20 cm, silica gel 60 specific layer thickness 0.25 mm, No. 37581 Riedel de Haen, Seelze, Federal Republic of Germany) using Microcaps (Drummond, Broomall, USA) and the thin-layer plates were dried in the air for 20 min.
The plates were developed in the following mobile phases: Substance Mobile phase
The constituents of the mobile phases were bought from the usual manufacturers in the highest possible purity grade. After developing and drying the plates, the distribution of the active compounds and the bile acid derivatives, or their metabolites, was determined by densitometry (CD 50 densitometer, DESAGA; Heidelberg). Detection was carried out in reflection mode with linear sampling at the wavelengths 252 nm (chlorambucil/chlorambucil conjugate) or 260 nm (remaining substances).
In order to evaluate the chromatograms, the relative intensity of the bile acid derivatives, the active compounds or the active compound metabolites on a chromatogram was given in surface area units.

C[C@H](CCC(=O)NCCS(=O)(=O)O)[C@H]1CC[C@H]2[C@@H]3[C@H](O)C[C@@H]4C[C@@H](OCCNC(=O)CCCc5ccc(N(CCCl)CCCl)cc5)CC[C@]4(C)[C@H]3C[C@H](O)[C@]12C [Example 67]
(2) Conc. W-X-G in bile (bile at 2 min): 1207 surface area units
Total (1) + (2) (bile at 2 min): 1207 surface area units
(2) Conc. W-X-G in bile (bile at 4 min): 17803 surface area units
Total (1) + (2) (bile at 4 min): 17803 surface area units
(2) Conc. W-X-G in bile (bile at 6 min): 21762 surface area units
Total (1) + (2) (bile at 6 min): 21762 surface area units
(2) Conc. W-X-G in bile (bile at 8 min): 27280 surface area units
Total (1) + (2) (bile at 8 min): 27280 surface area units
(2) Conc. W-X-G in bile (bile at 10 min): 27346 surface area units
Total (1) + (2) (bile at 10 min): 27346 surface area units
(2) Conc. W-X-G in bile (bile at 15 min): 16673 surface area units
Total (1) + (2) (bile at 15 min): 16673 surface area units
(2) Conc. W-X-G in bile (bile at 20 min): 10748 surface area units
Total (1) + (2) (bile at 20 min): 10748 surface area units
(2) Conc. W-X-G in bile (bile at 30 min): 5375 surface area units
Total (1) + (2) (bile at 30 min): 5375 surface area units
(2) Conc. W-X-G in bile (bile at 40 min): 1273 surface area units
Total (1) + (2) (bile at 40 min): 1273 surface area units
(2) Conc. W-X-G in bile (bile at 50 min): 828 surface area units
Total (1) + (2) (bile at 50 min): 828 surface area units
(2) Conc. W-X-G in bile (bile at 60 min): 633 surface area units
Total (1) + (2) (bile at 60 min): 633 surface area units
(2) Conc. W-X-G in bile (bile at 70 min): 826 surface area units
Total (1) + (2) (bile at 70 min): 826 surface area units
(2) Conc. W-X-G in bile (bile at 80 min): 635 surface area units
Total (1) + (2) (bile at 80 min): 635 surface area units
(2) Conc. W-X-G in bile (bile at 90 min): 638 surface area units
Total (1) + (2) (bile at 90 min): 638 surface area units
(2) Conc. W-X-G in bile (bile at 100 min): 559 surface area units
Total (1) + (2) (bile at 100 min): 559 surface area units
(2) Conc. W-X-G in bile (bile at 110 min): 408 surface area units
Total (1) + (2) (bile at 110 min): 408 surface area units
(2) Conc. W-X-G in bile (bile at 120 min): 383 surface area units
Total (1) + (2) (bile at 120 min): 383 surface area units
